The values below come from PubChem BioAssay AID651817 (Broad Institute, 2012).

Each structure is given as a SMILES string. Calls of active or inactive are those of the source.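 The calls were made as follows: active = compound whose fitted luminescence drop, meaning cytotoxicity, reaches half effect at most twice its top valid tested dose; inconclusive = flat curve with a moderate drop, or an unreliable fit; inactive = rise instead of drop, flat response, or weaker potency.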

A short description of one assay: NIH/3T3 fibroblast cytotoxicity, dose response, cytotoxicity control for T. cruzi growth inhibitor project, cell-based, cherry-pick samples, set 2 (AID 651817). The following applies: NIH/3T3 viability, ATP luminescence (CellTiter-Glo), 90 h; at 18 µM (top of the series). A general note: In ATP-based viability assays light output follows the ATP content of the culture.
As to `C[C@H]1CN([C@@H](C)CO)C(=O)Cc2cc(NS(=O)(=O)c3ccc(Cl)cc3)ccc2O[C@@H]1CN(C)S(=O)(=O)c1ccc(Cl)cc1`, the activity change, negative = cytotoxicity is -1.6% (inactive).

The same assay, now with this note: NIH/3T3 viability, ATP luminescence (CellTiter-Glo), 90 h; at 19.5 µM (top of the series).
Consider `C[C@@H]1CN([C@H](C)CO)C(=O)c2cccc(NC(=O)c3nc4ccccc4s3)c2O[C@@H]1CN(C)S(=O)(=O)c1ccccc1`, for which the activity change, negative = cytotoxicity is 35.6% (inactive).
For the compound `C[C@@H]1CN([C@@H](C)CO)C(=O)c2cccc(NC(=O)c3ccncc3)c2O[C@H]1CN(C)CC1CCCCC1`, the activity change, negative = cytotoxicity is -8.6% (inactive).
As to `Cc1ccc(S(=O)(=O)N(C)C[C@@H]2Oc3ccc(NS(=O)(=O)c4ccccc4)cc3CC(=O)N([C@H](C)CO)C[C@H]2C)cc1`, the activity change, negative = cytotoxicity was -18.9% (inactive).
As to `Cc1noc(C)c1NC(=O)Nc1cccc2c1O[C@H](CN(C)S(C)(=O)=O)[C@@H](C)CN([C@H](C)CO)C2=O`, the activity change, negative = cytotoxicity was 2.45% (inactive).
Same read-out and setting: with `C[C@@H]1CN([C@@H](C)CO)C(=O)c2cccc(NC(=O)c3ccncc3)c2O[C@@H]1CN(C)CC1CCCCC1` the figure was 15.4% (inactive); with `C[C@@H]1CN([C@H](C)CO)C(=O)c2cccc(NC(=O)NC3CCCCC3)c2O[C@H]1CN(C)S(=O)(=O)c1ccc(F)cc1`, 1.29% (inactive).
Regarding `C[C@@H]1CN([C@@H](C)CO)C(=O)c2cccc(NC(=O)c3ccncc3)c2O[C@H]1CN(C)CC1CC1`, the activity change, negative = cytotoxicity is -16.5% (inactive).
`Cc1ccc(S(=O)(=O)Nc2ccc3c(c2)CC(=O)N([C@H](C)CO)C[C@@H](C)[C@H](CN(C)Cc2ccc4c(c2)OCO4)O3)cc1`: the activity change, negative = cytotoxicity was 11% (inactive).
As for `C[C@@H]1CN([C@H](C)CO)C(=O)c2cccc(NC(=O)c3ccncc3)c2O[C@@H]1CN(C)Cc1ccccc1`, the activity change, negative = cytotoxicity is 4.84% (inactive).
Same read-out and setting: with `Cc1ccc(S(=O)(=O)Nc2ccc3c(c2)CC(=O)N([C@@H](C)CO)C[C@@H](C)[C@@H](CN(C)Cc2ccccc2)O3)cc1` the figure was -13.8% (inactive).
Turning to `COc1ccc(CN(C)C[C@H]2Oc3c(NC(=O)c4ccncc4)cccc3C(=O)N([C@@H](C)CO)C[C@@H]2C)cc1`, the activity change, negative = cytotoxicity was 5.41% (inactive).
Still for that read-out and setting: with `Cc1ccc(S(=O)(=O)N(C)C[C@@H]2Oc3ccc(NS(=O)(=O)c4ccc(Cl)cc4)cc3CC(=O)N([C@@H](C)CO)C[C@H]2C)cc1` the figure was -61.2% (inactive); with `C[C@H](CO)N1C[C@H](C)[C@@H](CN(C)S(=O)(=O)c2ccc(Cl)cc2)Oc2ccc(NS(=O)(=O)c3ccccc3)cc2CC1=O`, -20.3% (inactive); with `Cc1ccc(S(=O)(=O)Nc2ccc3c(c2)CC(=O)N([C@@H](C)CO)C[C@H](C)[C@@H](CN(C)Cc2ccccc2)O3)cc1`, 30.9% (inactive).
For `COc1ccc(CN(C)C[C@H]2Oc3c(NC(=O)Nc4ccc(C(F)(F)F)cc4)cccc3C(=O)N([C@H](C)CO)C[C@@H]2C)cc1`, the activity change, negative = cytotoxicity is -1.02% (inactive).
As for `C[C@H](CO)N1C[C@H](C)[C@H](CN(C)Cc2ccc(-c3ccccc3)cc2)Oc2c(NC(=O)c3ccncc3)cccc2C1=O`, the activity change, negative = cytotoxicity is 4.37% (inactive).
Turning to `C[C@@H]1CN([C@H](C)CO)C(=O)c2cccc(NC(=O)c3ccncc3)c2O[C@@H]1CN(C)Cc1ccc(-c2ccccc2)cc1`, the activity change, negative = cytotoxicity was 6.2% (inactive).
In the case of `C[C@H]1CN([C@@H](C)CO)C(=O)c2cccc(NC(=O)c3ccncc3)c2O[C@@H]1CN(C)Cc1ccc(Cl)c(Cl)c1`, the activity change, negative = cytotoxicity was -25.7% (inactive).
Turning to `C[C@@H]1CN([C@H](C)CO)C(=O)c2cccc(NC(=O)c3ccncc3)c2O[C@@H]1CN(C)Cc1ccc2c(c1)OCO2`, the activity change, negative = cytotoxicity was -25.6% (inactive).
With `C[C@H](CO)N1C[C@H](C)[C@@H](CN(C)S(=O)(=O)c2ccc(F)cc2)Oc2c(NC(=O)NC3CCCCC3)cccc2C1=O`, the activity change, negative = cytotoxicity is 5.78% (inactive).
Regarding `C[C@@H]1CN([C@@H](C)CO)C(=O)c2cccc(NC(=O)c3ccncc3)c2O[C@H]1CN(C)Cc1ccc2c(c1)OCO2`, the activity change, negative = cytotoxicity is -26.4% (inactive).
Consider `Cc1ccc(S(=O)(=O)N(C)C[C@H]2Oc3ccc(NS(=O)(=O)c4ccccc4)cc3CC(=O)N([C@H](C)CO)C[C@H]2C)cc1`, for which the activity change, negative = cytotoxicity is -0.01% (inactive).
Turning to `C[C@@H]1CN([C@H](C)CO)C(=O)c2cccc(NC(=O)NC3CCCCC3)c2O[C@@H]1CN(C)S(=O)(=O)c1ccc(F)cc1`, the activity change, negative = cytotoxicity is 18.6% (inactive).
With `Cc1ccc(S(=O)(=O)N(C)C[C@H]2Oc3c(NC(=O)c4nc5ccccc5s4)cccc3C(=O)N([C@H](C)CO)C[C@H]2C)cc1`, the activity change, negative = cytotoxicity was 14.1% (inactive).
On to `COc1ccc(CN(C)C[C@@H]2Oc3c(NC(=O)c4ccncc4)cccc3C(=O)N([C@@H](C)CO)C[C@H]2C)cc1`, for which the activity change, negative = cytotoxicity was -18.8% (inactive).
Turning to `C[C@@H]1CN([C@@H](C)CO)C(=O)Cc2cc(NS(=O)(=O)c3ccccc3)ccc2O[C@@H]1CN(C)S(=O)(=O)c1ccc(Cl)cc1`, the activity change, negative = cytotoxicity was -12.4% (inactive).
The same measure, in the same setting: as for `COc1ccc(CN(C)C[C@@H]2Oc3c(NC(=O)Nc4ccc(C(F)(F)F)cc4)cccc3C(=O)N([C@@H](C)CO)C[C@H]2C)cc1`, the figure is -16.2% (inactive); as for `C[C@@H]1CN([C@H](C)CO)C(=O)c2cccc(NC(=O)c3nc4ccccc4s3)c2O[C@@H]1CN(C)Cc1ccc2c(c1)OCO2`, -22.1% (inactive).
With `C[C@@H]1CN([C@H](C)CO)C(=O)c2cccc(NC(=O)c3nc4ccccc4s3)c2O[C@H]1CN(C)S(=O)(=O)c1ccc(Cl)cc1`, the activity change, negative = cytotoxicity was -10.1% (inactive).
In the case of `COc1ccc(CN(C)C[C@@H]2Oc3c(NC(=O)Nc4ccc(C(F)(F)F)cc4)cccc3C(=O)N([C@H](C)CO)C[C@@H]2C)cc1`, the activity change, negative = cytotoxicity was -21.3% (inactive).
On to `C[C@@H]1CN([C@@H](C)CO)C(=O)c2cccc(NC(=O)Nc3ccc(C(F)(F)F)cc3)c2O[C@H]1CN(C)Cc1ccc(Cl)c(Cl)c1`, for which the activity change, negative = cytotoxicity was -34.5% (inactive).
For the compound `COc1ccc(CN(C)C[C@H]2Oc3c(NC(=O)Nc4ccc(C(F)(F)F)cc4)cccc3C(=O)N([C@@H](C)CO)C[C@H]2C)cc1`, the activity change, negative = cytotoxicity was -11.1% (inactive).
Regarding `C[C@@H]1CN([C@@H](C)CO)C(=O)c2cccc(NC(=O)NC3CCCCC3)c2O[C@H]1CN(C)S(=O)(=O)c1ccc(F)cc1`, the activity change, negative = cytotoxicity is 12.1% (inactive).
Take `Cc1ccc(S(=O)(=O)Nc2ccc3c(c2)CC(=O)N([C@H](C)CO)C[C@H](C)[C@H](CN(C)Cc2ccccc2)O3)cc1`: the activity change, negative = cytotoxicity is -17.1% (inactive).

Staying with this assay, now noted: NIH/3T3 viability, ATP luminescence (CellTiter-Glo), 90 h; at 21 µM (top of the series).
For `Cc1ccc(S(=O)(=O)N(C)C[C@@H]2Oc3c(NC(=O)c4nc5ccccc5s4)cccc3C(=O)N([C@H](C)CO)C[C@H]2C)cc1`, the activity change, negative = cytotoxicity was 44.2% (inactive).
As to `Cc1ccc(S(=O)(=O)N(C)C[C@@H]2Oc3ccc(NS(=O)(=O)c4ccc(Cl)cc4)cc3CC(=O)N([C@H](C)CO)C[C@@H]2C)cc1`, the activity change, negative = cytotoxicity is -5.69% (inactive).
`Cc1ccc(S(=O)(=O)Nc2ccc3c(c2)CC(=O)N([C@@H](C)CO)C[C@H](C)[C@@H](CN(C)S(=O)(=O)c2ccc(Cl)cc2)O3)cc1`: the activity change, negative = cytotoxicity was 11.7% (inactive).
